Key:
[1] = target: T1, Serine/threonine-protein kinase DCLK2 (Homo sapiens) (UniProt Q8N568); assay: Inhibition of DCAMKL2 (unknown origin) assessed as remaining activity at 1 uM by Kinome scan method relative to control
T1 sequence (whole entry): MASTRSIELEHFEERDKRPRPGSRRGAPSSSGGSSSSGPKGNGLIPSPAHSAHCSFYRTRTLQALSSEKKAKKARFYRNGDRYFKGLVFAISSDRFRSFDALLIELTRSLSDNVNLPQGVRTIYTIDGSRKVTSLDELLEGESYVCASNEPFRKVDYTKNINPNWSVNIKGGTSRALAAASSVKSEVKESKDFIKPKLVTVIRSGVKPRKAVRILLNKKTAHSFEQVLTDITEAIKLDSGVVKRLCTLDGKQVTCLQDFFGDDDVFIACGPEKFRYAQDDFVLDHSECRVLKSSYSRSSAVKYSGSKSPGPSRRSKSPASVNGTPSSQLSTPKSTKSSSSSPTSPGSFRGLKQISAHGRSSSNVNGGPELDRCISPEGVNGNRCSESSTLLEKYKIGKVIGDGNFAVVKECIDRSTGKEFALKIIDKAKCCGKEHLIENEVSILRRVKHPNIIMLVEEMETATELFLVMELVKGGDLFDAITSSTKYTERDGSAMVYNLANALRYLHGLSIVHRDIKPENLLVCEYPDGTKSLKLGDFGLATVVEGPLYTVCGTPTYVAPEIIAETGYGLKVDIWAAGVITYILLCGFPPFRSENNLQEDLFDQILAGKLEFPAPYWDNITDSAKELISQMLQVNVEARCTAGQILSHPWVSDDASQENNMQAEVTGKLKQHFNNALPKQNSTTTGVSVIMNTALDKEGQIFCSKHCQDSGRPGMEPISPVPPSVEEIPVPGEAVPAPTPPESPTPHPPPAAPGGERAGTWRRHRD

[2] = target: Serine/threonine-protein kinase MRCK gamma (Homo sapiens) (UniProt Q6DT37); assay: Inhibition of DMPK2 (unknown origin) assessed as remaining activity at 1 uM by Kinome scan method relative to control
Serine/threonine-protein kinase MRCK gamma (Homo sapiens), sequence (Q6DT37 whole entry): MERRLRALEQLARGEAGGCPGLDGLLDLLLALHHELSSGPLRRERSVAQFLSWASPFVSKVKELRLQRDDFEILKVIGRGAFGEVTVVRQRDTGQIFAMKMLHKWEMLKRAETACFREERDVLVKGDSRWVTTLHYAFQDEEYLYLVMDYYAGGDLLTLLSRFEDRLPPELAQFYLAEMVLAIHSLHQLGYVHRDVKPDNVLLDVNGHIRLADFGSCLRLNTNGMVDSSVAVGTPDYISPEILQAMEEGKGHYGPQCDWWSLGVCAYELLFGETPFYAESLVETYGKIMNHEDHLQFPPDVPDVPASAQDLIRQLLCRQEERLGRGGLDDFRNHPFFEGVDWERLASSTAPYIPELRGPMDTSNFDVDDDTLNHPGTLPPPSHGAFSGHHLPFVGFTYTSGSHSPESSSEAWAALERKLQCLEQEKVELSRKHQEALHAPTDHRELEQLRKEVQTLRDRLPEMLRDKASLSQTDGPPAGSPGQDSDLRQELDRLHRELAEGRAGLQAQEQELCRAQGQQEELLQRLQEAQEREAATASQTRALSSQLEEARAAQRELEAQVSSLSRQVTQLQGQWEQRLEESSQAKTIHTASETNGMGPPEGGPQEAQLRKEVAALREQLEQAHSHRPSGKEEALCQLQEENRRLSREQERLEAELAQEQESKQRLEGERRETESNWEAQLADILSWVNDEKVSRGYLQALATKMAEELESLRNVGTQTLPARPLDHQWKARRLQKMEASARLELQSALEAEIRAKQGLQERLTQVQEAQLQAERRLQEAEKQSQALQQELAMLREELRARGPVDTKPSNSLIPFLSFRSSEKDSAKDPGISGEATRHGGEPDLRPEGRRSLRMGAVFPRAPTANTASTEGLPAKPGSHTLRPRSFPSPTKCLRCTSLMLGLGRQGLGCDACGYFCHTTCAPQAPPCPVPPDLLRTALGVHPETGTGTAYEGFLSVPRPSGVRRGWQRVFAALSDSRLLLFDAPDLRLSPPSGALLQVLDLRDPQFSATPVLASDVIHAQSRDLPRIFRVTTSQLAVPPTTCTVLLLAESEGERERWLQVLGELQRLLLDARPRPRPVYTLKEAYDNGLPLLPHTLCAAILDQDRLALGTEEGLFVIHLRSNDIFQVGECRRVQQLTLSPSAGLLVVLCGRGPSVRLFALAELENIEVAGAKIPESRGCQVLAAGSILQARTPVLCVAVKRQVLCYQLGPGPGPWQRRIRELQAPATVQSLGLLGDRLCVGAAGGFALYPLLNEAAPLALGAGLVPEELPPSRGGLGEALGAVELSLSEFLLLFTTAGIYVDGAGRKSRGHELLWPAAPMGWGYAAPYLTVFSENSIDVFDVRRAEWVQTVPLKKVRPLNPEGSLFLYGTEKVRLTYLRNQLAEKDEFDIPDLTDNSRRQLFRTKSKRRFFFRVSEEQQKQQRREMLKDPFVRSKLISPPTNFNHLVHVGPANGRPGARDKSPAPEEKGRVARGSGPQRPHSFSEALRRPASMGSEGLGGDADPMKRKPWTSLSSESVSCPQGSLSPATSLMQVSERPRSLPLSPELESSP

[3] = target: T2, Serine/threonine-protein kinase 17A (Homo sapiens) (UniProt Q9UEE5); assay: Inhibition of DRAK1 (unknown origin) assessed as remaining activity at 1 uM by Kinome scan method relative to control
T2 sequence (whole entry): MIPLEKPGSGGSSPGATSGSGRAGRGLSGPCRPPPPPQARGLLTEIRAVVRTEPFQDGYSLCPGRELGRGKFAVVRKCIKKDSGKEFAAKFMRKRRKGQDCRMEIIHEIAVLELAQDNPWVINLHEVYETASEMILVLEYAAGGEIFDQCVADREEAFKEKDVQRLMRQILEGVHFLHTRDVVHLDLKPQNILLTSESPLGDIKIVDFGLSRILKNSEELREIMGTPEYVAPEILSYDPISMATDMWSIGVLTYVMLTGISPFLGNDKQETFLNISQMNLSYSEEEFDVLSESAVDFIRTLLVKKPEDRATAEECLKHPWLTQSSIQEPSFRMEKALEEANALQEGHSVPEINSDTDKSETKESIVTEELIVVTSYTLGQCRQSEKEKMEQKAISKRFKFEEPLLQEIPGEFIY

[4] = target: Serine/threonine-protein kinase pim-2 (Homo sapiens) (UniProt Q9P1W9); assay: Inhibition of PIM2 (unknown origin) assessed as remaining activity at 1 uM by Kinome scan method relative to control
Serine/threonine-protein kinase pim-2 (Homo sapiens), sequence (Q9P1W9 whole entry, looked up): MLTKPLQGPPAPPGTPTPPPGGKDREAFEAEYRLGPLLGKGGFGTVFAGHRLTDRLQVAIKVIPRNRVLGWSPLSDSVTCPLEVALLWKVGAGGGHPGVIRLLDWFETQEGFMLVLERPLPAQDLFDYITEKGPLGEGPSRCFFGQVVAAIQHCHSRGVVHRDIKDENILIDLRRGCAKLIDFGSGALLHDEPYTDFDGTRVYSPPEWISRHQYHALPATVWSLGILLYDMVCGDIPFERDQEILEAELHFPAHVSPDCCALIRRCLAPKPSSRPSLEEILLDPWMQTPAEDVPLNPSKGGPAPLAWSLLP

[5] = target: T3, Serine/threonine-protein kinase TAO3 (Homo sapiens) (UniProt Q9H2K8); assay: Inhibition of TAOK3 (unknown origin) assessed as remaining activity at 1 uM by Kinome scan method relative to control
T3 sequence (whole entry): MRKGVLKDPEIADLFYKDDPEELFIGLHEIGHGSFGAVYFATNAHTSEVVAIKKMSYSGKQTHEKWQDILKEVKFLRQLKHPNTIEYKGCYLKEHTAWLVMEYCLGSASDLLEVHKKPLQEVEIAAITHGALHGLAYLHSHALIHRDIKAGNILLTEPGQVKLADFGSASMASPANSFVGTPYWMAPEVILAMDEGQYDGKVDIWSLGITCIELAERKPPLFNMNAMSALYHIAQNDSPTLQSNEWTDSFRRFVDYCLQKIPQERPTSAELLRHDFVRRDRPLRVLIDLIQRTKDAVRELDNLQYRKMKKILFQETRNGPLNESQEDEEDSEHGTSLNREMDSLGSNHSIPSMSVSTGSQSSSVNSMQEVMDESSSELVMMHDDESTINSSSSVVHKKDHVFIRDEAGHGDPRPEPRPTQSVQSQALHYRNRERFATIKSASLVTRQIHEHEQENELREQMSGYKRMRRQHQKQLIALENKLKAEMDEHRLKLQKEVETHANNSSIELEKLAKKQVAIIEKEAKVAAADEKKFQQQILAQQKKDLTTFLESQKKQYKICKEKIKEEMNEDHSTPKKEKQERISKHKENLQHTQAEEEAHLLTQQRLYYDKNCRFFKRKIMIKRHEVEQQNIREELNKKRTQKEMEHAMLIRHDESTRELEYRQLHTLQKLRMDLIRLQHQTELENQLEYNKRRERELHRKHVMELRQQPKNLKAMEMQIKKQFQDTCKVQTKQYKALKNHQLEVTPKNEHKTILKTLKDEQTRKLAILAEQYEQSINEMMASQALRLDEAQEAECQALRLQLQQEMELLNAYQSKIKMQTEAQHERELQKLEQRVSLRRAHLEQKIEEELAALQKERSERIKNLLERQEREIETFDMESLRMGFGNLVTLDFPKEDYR

[6] = target: T4, Tyrosine-protein kinase TXK (Homo sapiens) (UniProt P42681); assay: Inhibition of TXK (unknown origin) assessed as remaining activity at 1 uM by Kinome scan method relative to control
T4 sequence (whole entry): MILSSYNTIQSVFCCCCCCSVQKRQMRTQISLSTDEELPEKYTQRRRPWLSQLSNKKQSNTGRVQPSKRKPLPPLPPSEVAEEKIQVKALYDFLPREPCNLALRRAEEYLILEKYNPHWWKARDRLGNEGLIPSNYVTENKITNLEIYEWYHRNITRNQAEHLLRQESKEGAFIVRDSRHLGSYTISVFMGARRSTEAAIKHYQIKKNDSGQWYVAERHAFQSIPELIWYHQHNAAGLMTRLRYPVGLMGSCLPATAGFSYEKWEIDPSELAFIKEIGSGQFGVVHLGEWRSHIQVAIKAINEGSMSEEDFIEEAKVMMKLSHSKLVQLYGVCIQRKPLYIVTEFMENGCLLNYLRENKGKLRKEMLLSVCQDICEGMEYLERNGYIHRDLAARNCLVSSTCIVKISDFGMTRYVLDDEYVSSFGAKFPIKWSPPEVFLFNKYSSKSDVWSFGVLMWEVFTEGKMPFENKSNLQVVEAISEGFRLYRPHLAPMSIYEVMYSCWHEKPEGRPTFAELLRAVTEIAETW

[7] = target: Wee1-like protein kinase (Homo sapiens) (UniProt P30291); assay: Inhibition of WEE1 (unknown origin) assessed as remaining activity at 1 uM by Kinome scan method relative to control
Wee1-like protein kinase (Homo sapiens), sequence (P30291 whole entry, looked up): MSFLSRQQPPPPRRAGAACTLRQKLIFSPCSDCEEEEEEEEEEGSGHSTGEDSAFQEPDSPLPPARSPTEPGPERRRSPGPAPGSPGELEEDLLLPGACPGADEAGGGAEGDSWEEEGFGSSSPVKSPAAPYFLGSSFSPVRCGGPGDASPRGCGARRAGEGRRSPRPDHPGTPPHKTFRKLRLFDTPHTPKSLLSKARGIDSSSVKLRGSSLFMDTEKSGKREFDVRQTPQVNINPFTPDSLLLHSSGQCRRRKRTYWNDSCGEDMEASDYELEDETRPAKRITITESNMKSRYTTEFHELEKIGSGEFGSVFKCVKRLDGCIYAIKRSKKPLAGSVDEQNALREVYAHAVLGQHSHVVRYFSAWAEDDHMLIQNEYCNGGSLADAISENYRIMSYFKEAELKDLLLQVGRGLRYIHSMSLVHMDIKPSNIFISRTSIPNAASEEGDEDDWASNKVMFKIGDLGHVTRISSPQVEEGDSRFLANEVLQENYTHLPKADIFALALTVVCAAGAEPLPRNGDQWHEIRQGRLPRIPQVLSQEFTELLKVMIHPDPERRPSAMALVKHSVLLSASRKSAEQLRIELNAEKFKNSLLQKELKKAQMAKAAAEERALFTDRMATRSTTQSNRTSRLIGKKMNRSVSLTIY

Nc1ccccc1Nc1ccc2c(c1)CCc1ccccc1C2=O
Activity [1]: 98% | Activity [2]: 92% | Activity [3]: 92% | Activity [4]: 98% | Activity [5]: 99% | Activity [6]: 90% | Activity [7]: 98%

O=C1c2ccc(Nc3ccc(F)cc3F)cc2CCc2ccc(OC[C@H](O)CO)cc21 [Skepinone-L]
Activity [1]: 88% | Activity [2]: 100% | Activity [3]: 100% | Activity [4]: 100% | Activity [5]: 100% | Activity [6]: 86% | Activity [7]: 100%

Source: ChEMBL document CHEMBL5696441 (Nat Chem Biol, 2011)
